Test results published in patent publication US12486290B2, “Isoindolinone and indazole compounds for the degradation of EGFR” (C4 THERAPEUTICS, INC., priority 2019, dated 2025).

Legend:
Format in all cases: cell-based
[1] = biological target: T1, EGFR T790M/L858R (NCI-H1975 cells) (Homo sapiens, UniProt P00533, L858R/T790M); test: EGFR (L858R) degradation analysis, Total EGFR (L858R) HTRF, NCI-H1975 cells; conditions: 6 hours
T1 construct: NCI-H1975 (harboring EGFR heterozygous T790M/L858R mutations); host or cells: NCI-H1975
Procedure, shortened: (§1)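 Cells (10000/well NCI-H1975 and NCI-H1975+CS, 1000/well NCI-H3255) treated with 11-point half-log titrations from 10 μM top, in duplicate, for 6 hours at 37° C., 5% CO2. Total EGFR (L858R) quantified by HTRF FRET; untreated cells as negative and cell-free wells as positive control.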

[2] = biological target: T2, EGFR L858R (NCI-H3255 cells) (Homo sapiens, UniProt P00533, L858R); test: EGFR (L858R) degradation analysis, Total EGFR (L858R) HTRF, NCI-H3255 cells; conditions: 6 hours
T2 construct: NCI-H3255 (harboring EGFR heterozygous L858R mutation); host or cells: NCI-H3255
Procedure, shortened: as §1

[3] = biological target: T3, EGFR T790M/L858R/C797S (NCI-H1975+CS cells) (Homo sapiens, UniProt P00533, C797S/L858R/T790M); test: EGFR (L858R) degradation analysis, Total EGFR (L858R) HTRF, NCI-H1975+CS cells; conditions: 6 hours, read-out: H1975 C797S clone EGFR DC50
T3 construct: NCI-H1975+CS (harboring EGFR heterozygous T/790M/L858R/C797S mutations) was generated using CRISPR technology; host or cells: NCI-H1975+CS (CRISPR-edited NCI-H1975)
Description: NCI-H1975 (harboring EGFR heterozygous T790M/L858R mutations) and NCI-H3255 (harboring EGFR heterozygous L858R mutation) were purchased from ATCC and NCI, respectively. NCI-H1975+CS (harboring EGFR heterozygous T/790M/L858R/C797S mutations) was generated using CRISPR technology to introduce the additional C797S mutation by Horizon Discovery. RPMI 1640 no-phenol red medium and fetal bovine serum (FBS) were purchased from Gibco (Grand Island, NY, USA). Cell culture flasks and 384-well microplates were acquired from VWR (Radnor, PA, USA). Total EGFR (L858R) HTRF assay kits were purchased from Cisbio (Bedford, MA, USA).
Degradation of EGFR protein containing L858R mutation was determined based on quantification of FRET signal using Total EGFR (L858R) HTRF assay kit. Test compounds were added to the 384-well plate from a top concentration of 10 μM with 11 points, half log titration in duplicates. NCI-H1975, NCI-H1975+CS or NCI-H3255 cells were added into 384-well plates at a cell density of 10000, 10000 or 1000 cells per well, respectively. The plates were kept at 37° C. with 5% CO2 for 6 hours. Cells treated in the absence of the test compound were the negative control. Positive control was set by wells containing all reagents but no cells. FRET signal was acquired on EnVision™ Multilabel Reader (PerkinElmer, Santa Clara, CA, USA).

T3 sequence (P00533 25-1210 T790M/C797S/L858R): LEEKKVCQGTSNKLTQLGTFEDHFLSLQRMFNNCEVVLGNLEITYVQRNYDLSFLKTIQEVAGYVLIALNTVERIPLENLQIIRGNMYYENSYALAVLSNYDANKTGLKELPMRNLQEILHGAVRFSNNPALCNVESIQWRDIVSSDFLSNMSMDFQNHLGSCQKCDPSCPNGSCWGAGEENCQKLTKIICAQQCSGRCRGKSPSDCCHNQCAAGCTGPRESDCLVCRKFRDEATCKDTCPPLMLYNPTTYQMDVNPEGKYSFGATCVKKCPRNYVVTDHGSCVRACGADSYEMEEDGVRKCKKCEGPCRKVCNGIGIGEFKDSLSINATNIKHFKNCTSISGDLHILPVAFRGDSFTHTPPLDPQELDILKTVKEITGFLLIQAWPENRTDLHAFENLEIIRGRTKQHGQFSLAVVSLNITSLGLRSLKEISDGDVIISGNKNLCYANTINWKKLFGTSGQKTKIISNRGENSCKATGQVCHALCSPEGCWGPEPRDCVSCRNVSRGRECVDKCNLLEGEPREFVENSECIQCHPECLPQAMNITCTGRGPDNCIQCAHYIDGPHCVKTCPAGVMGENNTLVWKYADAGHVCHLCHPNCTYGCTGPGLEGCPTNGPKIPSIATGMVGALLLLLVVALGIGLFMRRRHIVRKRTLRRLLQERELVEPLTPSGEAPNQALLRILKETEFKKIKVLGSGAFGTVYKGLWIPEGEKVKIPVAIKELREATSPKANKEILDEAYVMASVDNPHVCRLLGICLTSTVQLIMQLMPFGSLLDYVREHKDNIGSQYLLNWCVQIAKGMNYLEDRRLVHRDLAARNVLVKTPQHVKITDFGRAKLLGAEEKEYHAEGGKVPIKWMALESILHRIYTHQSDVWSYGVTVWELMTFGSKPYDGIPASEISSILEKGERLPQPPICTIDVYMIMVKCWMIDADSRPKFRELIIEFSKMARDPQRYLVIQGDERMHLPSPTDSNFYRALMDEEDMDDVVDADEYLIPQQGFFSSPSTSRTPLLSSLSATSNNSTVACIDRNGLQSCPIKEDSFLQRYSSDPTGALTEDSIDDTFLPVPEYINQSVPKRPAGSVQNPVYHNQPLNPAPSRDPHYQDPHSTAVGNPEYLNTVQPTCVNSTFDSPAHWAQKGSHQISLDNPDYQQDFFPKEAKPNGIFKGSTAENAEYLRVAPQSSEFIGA
T2 sequence (P00533 25-1210 L858R): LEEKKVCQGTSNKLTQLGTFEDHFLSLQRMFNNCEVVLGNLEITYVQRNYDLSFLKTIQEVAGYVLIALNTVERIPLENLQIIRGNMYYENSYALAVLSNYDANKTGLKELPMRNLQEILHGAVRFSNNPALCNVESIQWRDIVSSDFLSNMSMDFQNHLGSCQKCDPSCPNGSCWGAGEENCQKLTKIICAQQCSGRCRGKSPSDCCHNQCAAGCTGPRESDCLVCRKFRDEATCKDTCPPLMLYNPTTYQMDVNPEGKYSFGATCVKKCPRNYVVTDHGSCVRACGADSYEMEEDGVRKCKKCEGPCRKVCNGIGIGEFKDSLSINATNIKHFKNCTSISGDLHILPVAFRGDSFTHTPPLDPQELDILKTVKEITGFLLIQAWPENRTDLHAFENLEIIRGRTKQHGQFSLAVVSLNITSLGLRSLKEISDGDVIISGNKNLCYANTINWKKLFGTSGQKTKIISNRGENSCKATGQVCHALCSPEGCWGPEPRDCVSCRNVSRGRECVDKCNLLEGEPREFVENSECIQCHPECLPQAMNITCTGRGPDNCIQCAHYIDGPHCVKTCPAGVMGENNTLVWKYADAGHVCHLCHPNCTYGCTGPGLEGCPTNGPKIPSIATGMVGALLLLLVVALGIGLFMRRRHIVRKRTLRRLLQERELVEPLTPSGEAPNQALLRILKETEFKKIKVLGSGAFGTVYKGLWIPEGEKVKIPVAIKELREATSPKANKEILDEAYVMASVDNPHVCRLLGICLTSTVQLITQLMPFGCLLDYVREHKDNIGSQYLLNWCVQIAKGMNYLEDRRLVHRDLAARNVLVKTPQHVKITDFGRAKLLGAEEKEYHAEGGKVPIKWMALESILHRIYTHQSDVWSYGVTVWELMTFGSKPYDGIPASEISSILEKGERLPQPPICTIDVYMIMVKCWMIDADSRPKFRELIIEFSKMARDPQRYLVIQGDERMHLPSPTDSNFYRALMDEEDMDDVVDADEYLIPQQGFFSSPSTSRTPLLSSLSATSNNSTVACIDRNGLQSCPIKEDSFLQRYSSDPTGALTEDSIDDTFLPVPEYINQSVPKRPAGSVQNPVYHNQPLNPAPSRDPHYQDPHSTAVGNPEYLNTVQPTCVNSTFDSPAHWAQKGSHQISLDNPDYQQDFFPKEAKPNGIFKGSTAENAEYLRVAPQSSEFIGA
T1 sequence (P00533 25-1210 T790M/L858R): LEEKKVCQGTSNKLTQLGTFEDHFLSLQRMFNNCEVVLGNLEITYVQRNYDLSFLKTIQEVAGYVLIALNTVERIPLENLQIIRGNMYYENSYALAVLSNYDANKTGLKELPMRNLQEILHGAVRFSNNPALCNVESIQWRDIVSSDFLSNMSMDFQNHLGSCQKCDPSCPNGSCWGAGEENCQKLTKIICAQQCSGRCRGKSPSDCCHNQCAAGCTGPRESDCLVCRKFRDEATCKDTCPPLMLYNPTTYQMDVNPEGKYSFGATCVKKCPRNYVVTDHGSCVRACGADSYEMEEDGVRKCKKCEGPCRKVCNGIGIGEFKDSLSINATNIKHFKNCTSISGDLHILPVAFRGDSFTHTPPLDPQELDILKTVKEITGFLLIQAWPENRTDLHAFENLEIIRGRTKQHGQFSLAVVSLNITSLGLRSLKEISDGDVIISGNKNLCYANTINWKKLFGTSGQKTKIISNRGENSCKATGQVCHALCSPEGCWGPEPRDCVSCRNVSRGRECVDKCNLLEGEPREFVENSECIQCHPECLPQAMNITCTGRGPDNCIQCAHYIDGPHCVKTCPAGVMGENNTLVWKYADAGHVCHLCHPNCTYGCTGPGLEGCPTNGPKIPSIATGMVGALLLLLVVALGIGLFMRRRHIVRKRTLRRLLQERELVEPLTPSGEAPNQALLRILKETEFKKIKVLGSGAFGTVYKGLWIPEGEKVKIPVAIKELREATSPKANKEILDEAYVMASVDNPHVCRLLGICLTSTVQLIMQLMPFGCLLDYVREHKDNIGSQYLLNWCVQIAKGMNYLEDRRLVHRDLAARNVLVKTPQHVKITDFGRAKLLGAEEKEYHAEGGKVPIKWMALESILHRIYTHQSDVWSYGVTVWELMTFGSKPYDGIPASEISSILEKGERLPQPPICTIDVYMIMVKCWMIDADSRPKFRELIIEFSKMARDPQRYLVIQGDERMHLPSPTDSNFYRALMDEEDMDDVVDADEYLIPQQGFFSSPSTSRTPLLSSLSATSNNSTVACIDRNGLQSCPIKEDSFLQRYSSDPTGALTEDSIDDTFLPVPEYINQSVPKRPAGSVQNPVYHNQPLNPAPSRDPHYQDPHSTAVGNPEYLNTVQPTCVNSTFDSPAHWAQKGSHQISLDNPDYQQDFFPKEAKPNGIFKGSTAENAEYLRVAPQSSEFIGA

| DC50 [1] | DC50 [2] | DC50 [3] | Structure (SMILES) |
| --- | --- | --- | --- |
| 46 nM | 11 nM | 7 nM | O=C1CCC(Nc2ccc(C3CCN(CC(=O)N4CCN(Cc5ccc(-c6cc(F)c7c(c6)C(=O)N(C(C(=O)Nc6nccs6)c6ncn8c6CCC8)C7)cc5)CC4)CC3)c(F)c2)C(=O)N1 (stereo not drawn) [Compound 57, 2-(6,7-dihydro-5H-pyrrolo[1,2-c]imidazol-1-yl)-2-[6-[4-[[4-[2-[4-[4-[(2,6-dioxo-3-piperidyl)amino]-2-fluoro-phenyl]-1-piperidyl]acetyl]piperazin-1-yl]methyl]phenyl]-4-fluoro-1-oxo-isoindolin-2-yl]-N-thiazol-2-yl-acetamide] |
| 26 nM | 26 nM | 14 nM | O=C1CC[C@H](Nc2ccc(C3CCN(CC(=O)N4CCN(Cc5ccc(-c6cc(F)c7c(c6)C(=O)N(C(C(=O)Nc6nccs6)c6ncn8c6CCC8)C7)cc5)CC4)CC3)c(F)c2)C(=O)N1 (stereo partly drawn) [Compound 58, 2-(6,7-dihydro-5H-pyrrolo[1,2-c]imidazol-1-yl)-2-[6-[4-[[4-[2-[4-[4-[[(3S)-2,6-dioxo-3-piperidyl]amino]-2-fluoro-phenyl]-1-piperidyl]acetyl]piperazin-1-yl]methyl]phenyl]-4-fluoro-1-oxo-isoindolin-2-yl]-N-thiazol-2-yl-acetamide] |
| 19 nM | 12 nM | 8 nM | O=C1CC[C@H](Nc2ccc(C3CCN(C(=O)CN4CCN(Cc5ccc(-c6cc(F)c7c(c6)C(=O)N(C(C(=O)Nc6nccs6)c6ncn8c6CCC8)C7)cc5)CC4)CC3)c(F)c2)C(=O)N1 (stereo partly drawn) [Compound 59, 2-(6,7-dihydro-5H-pyrrolo[1,2-c]imidazol-1-yl)-2-[6-[4-[[4-[2-[4-[4-[[(3S)-2,6-dioxo-3-piperidyl]amino]-2-fluoro-phenyl]-1-piperidyl]-2-oxo-ethyl]piperazin-1-yl]methyl]phenyl]-4-fluoro-1-oxo-isoindolin-2-yl]-N-thiazol-2-yl-acetamide] |
